Test results: a melting point compilation (Tetko et al.; mined from patent text by program, amines drawn as free bases though some values may be those of a salt)
Residues, ends and D or L forms follow the SMILES beside them. *: point of attachment. Boc = CC(C)(C)OC(=O)*; Bn = c1ccc(C*)cc1

melting point | Compound
193 to 195 °C | O=S(=O)(/C=C/c1ccc(F)cc1F)CS(=O)(=O)/C=C/c1ccc(F)cc1F
171 to 174 °C | CN(C)Cc1cn(CCC(=O)O)c(=S)n1C1CCc2ccccc2C1 (stereo not drawn)
236 to 238 °C | CCCc1c(OCc2ccc(/C=C3\SC(=S)NC3=O)cc2)ccc(C(C)=O)c1O
98 to 99 °C | COc1ccc(C(=O)Nc2cc(NC(=O)c3cccc(N(C)C)c3)ccc2Cl)cc1OC
94 to 95 °C | CCOC(=O)c1[nH]c2c(c1O)CCCC2
208 to 211 °C | O=C1CN=C2C(=O)CC=CC2=N1
114 to 116 °C | O=C(c1ccncc1)c1ccc(Cl)c([N+](=O)[O-])c1
156 to 158 °C | O=S(=O)(Nc1cccc2cc(C3=NCC(CCO)S3)[nH]c12)c1cccs1 (stereo not drawn)
189 to 192 °C | Cc1cc([N+](=O)[O-])c(Cl)c([N+](=O)[O-])c1C(=O)O
155 to 157 °C | CNc1nc(SC)ncc1CO
139 to 140 °C | O=C(NC1CCN(CCOC(=O)c2ccccc2)CC1)c1ccccc1
106 °C | CCC1SC(=O)N(Cc2ccc(C(=O)O)cc2)N=C1c1ccc(O)c(O)c1 (stereo not drawn)
72 to 74 °C | CCSC(=O)c1c(C(F)(F)F)nc(C(F)F)c(C(=O)OC)c1N
182 to 184 °C | O=C(OCCO)c1ncn2c1[C@@H]1CCCN1C(=O)c1sccc1-2
122 to 127 °C | COC(=O)C(Cc1cccc(OCC(=O)O)c1)c1nc(-c2ccccc2)c(-c2ccccc2)o1 (stereo not drawn)
83 to 87 °C | COC(=O)C(O)C(CC1CCCCC1)NC(=O)C(Cc1c[nH]cn1)NC(=O)C(CC(=O)N1CCOCC1)Cc1cccc2ccccc12 (mixture of isomers)
230 to 240 °C | COc1ccc(Nc2c(C#N)cnc3cc(OC)c(OC)cc23)cc1OC
100 to 102 °C | CCCCOC(=O)c1ccc(OC(=O)C(=O)Oc2ccc(C(=O)OCCCC)cc2)cc1
249 to 250 °C | Cc1cc(-c2nc3sc4ccccc4n3c2CC(=O)O)c(C)s1
79 to 81 °C | N#CC(Cc1ccccn1)(C(N)=O)c1ccc([N+](=O)[O-])cc1 (stereo not drawn)
145 to 147 °C | C=Cc1ccc(S(=O)(=O)NS(=O)(=O)c2ccccc2)cc1
186 to 187 °C | Cn1ncnc1COc1nn2c(-c3ccccc3F)nncc2c1-c1ccccn1
178 to 180 °C | NC(=NOC1CCCCO1)Nc1c(Cl)cccc1Cl (stereo not drawn)
140 to 141 °C | CCCCc1ncc(/C=C(\Cc2cccs2)C(=O)O)n1Cc1ccc(OC)c(C)c1

melting point | Compound
260 °C | CN1C(=O)C(=O)NCC1(CCOC1CCCCO1)c1ccc(Cl)c(Cl)c1 (stereo not drawn)
81 to 83 °C | Cc1ccc([N+](=O)[O-])c(C)c1[N+](=O)[O-]
88 to 89 °C | O=Cc1cc(Br)cnc1Cl
155 to 157 °C | COc1ccc(-c2nc(-c3ccc(Br)cc3)sc2-c2ccc(OC)cc2)cc1
170 °C | CCCCNC(=O)COC1c2ccccc2C(=O)N1c1ccc2ccc(OC)nc2n1 (stereo not drawn)
87.7 °C | Clc1ccc(C=Cc2ccccc2)cc1Cl
154 to 156 °C | COc1c(C)c(C)cc(C)c1C(O)(c1ccc(C(C)C)cc1)C1CCN(Cc2ccccc2)CC1 (stereo not drawn)
42 to 44 °C | O=[N+]([O-])c1cccc(F)c1CCO
63 °C | CCOC(=O)CCc1c(C)nc(SCc2ccc(OC)cc2)n1C
117 to 121 °C | Cc1cccc(C(=O)NO)c1N(C)S(=O)(=O)c1ccc(OCCCCNC(=O)c2ccc3c(c2)OCO3)cc1
98 to 99 °C | COc1c(-c2ccc(O)c(O)c2)oc2cc(O)c(CC=C(C)CCC=C(C)C)c(O)c2c1=O
148 to 149 °C | CCOC(=O)N1C=CSC1C1=C(C)N=CC(OC)(OC)S1 (stereo not drawn)
60.2 °C | CC(C)(C)OC(=O)N1CCN2C(=O)N(c3cc(Cl)cc(Cl)c3)C(=O)C2C1 (stereo not drawn)
128 to 131 °C | CCCc1cc(NC(=O)c2c(C)nn(C)c2C)c(C)c(-c2cc(CCC)c(C(C(F)(F)F)C(F)(F)F)cc2C)c1
186 to 188 °C | CCOC(=O)c1oc2c([N+](=O)[O-])c(O)ccc2c1C
108 to 109 °C | CON=C(C)CN(C(=O)c1ccco1)c1c(C)cccc1C
94 to 95 °C | CC(C)(C)OC(=O)N1CCC(C(=O)c2nc3ccccc3s2)CC1
118 to 120 °C | CS(=O)(=O)c1ccc(-c2oc(CC(=O)O)nc2-c2ccc(F)cc2)cc1
130 to 132 °C | CC(CN(C)C)Oc1ccc(-c2n[nH]c3ncccc23)cc1 (stereo not drawn)
226 to 228 °C | C#CC1(O)C(CO)OC(n2ccc(=O)[nH]c2=O)C1O (stereo not drawn)
173 to 174 °C | COc1ccc(Cn2c(=O)nc(C3CC3)c3cc(-c4cccc(Cl)c4)ccc32)cc1
228 to 229 °C | O=C(Nc1cccnn1)N1CCN(c2nccc(-c3c(F)cccc3F)n2)CC1
139 to 140 °C | O=C1CNC(=O)N1Cc1ccccc1
206 to 207 °C | O=C(O)C1=Cc2cc(Cl)cc(-c3ccc(Cl)cc3)c2OC1C(F)(F)F (stereo not drawn)

melting point | Compound
131 to 133 °C | COc1ccc(C(=O)CCC(=O)N[C@@H](Cc2ccccc2)C(=O)O)cc1
173 °C | Cc1ccc(-c2ccc(C(=O)Nc3ccc4cc(CN5CCCC5)cnc4c3F)c(F)c2)cc1
104 to 107 °C | CC(NC(=O)C(Cc1ccc(OCc2ccccc2)cc1)NC(=O)OC(C)(C)C)C(=O)NCC(=O)O (stereo not drawn) (Boc-Tyr(Bn)-Ala-Gly-OH; configuration not given here)
145 to 165 °C | N#CN=CNC1c2ccccc2CC2CCCCC21 (stereo not drawn)
184 to 185 °C | Cc1cc(OCC(=O)O)cc(C)c1SCc1sc(-c2ccc(C(F)(F)F)cc2)nc1C
138 to 140 °C | O=C1CCCC(=O)C1C(=O)c1ccc(Cl)cc1Cl
237 to 238 °C | CCOC(=O)C(=O)Nc1nc2c(s1)C(=O)c1ccccc1-2
141 to 143 °C | COC(=O)C1=C(C=O)NC(C)=C(C(=O)OCC(C)(C)C)C1c1ccccc1C#N (stereo not drawn)
> 250 °C | O=C(c1ccc(-c2cc3cnc(Nc4cccc(Cl)c4)nc3[nH]2)cc1)N1CCOCC1
330 to 333 °C | Cc1cccc(-c2cc3cnc(N)nc3nc2N)c1C
171 to 172 °C | CC(C)C(=O)c1cnc(C(CC2CCCC2)c2ccc(S(C)(=O)=O)cc2)[nH]1 (stereo not drawn)
162 to 163 °C | CCCC12C=CC=C(N3CCC(c4noc5cc(F)ccc45)CC3)C1(O)C(=O)NC2=O (stereo not drawn)
76 to 77 °C | CCCCCCCCCCCCCC(=O)OCC1OC(n2cc(F)c(=O)n(C(=O)c3ccc(C)cc3)c2=O)CC1OC(=O)CCCCCCCCCCCCC (stereo not drawn)
274 to 280 °C | O=C1CCC(c2ccc(N=C(CCCc3ccccc3)c3ccc(O)cc3O)cc2)=NN1
125 to 127 °C | Nc1ccc(Sc2cccc3cnccc23)cc1NCc1ccccc1
250 to 253 °C | CCN1CCN(c2cc(-c3ccc(O)cc3)c3c(n2)CCCCCC3)CC1
120 °C | CC(=O)N[C@@H](C(=O)Oc1ccccc1)C(C)(C)SN=O
108 to 111 °C | CC1=C(C)c2cc(Br)ccc2Sc2ccccc21
86 to 87.5 °C | Cc1cc(Br)ccc1C(=O)NCc1ccccn1
128 to 129 °C | COCOc1c(OC)cc(C=CC(=O)c2c(OC)cc(OC)c(CC=C(C)C)c2O)cc1OC
40 to 41 °C | CON=CC1CCCN(C(=O)Oc2ccccc2)C1 (stereo not drawn)
141 °C | CC(=O)N[C@@H]1CN2C(=O)N(c3cc(Cl)cc(Cl)c3)C(=O)[C@@]2(Cc2ccc(Br)cc2)C1
171 to 172 °C | COc1cc(CCCCC2OC(=O)NC2=O)ccc1OCc1coc(/C=C/c2ccccc2)n1 (stereo not drawn)
96 to 98 °C | Cc1ccc(S(=O)(=O)Nc2ccccc2)cc1

melting point | Compound
159 to 162 °C | C=CCN(CC=C)c1nc(NC(=O)c2ccco2)n2oc(=O)nc2n1
34 °C | COc1cccnc1Br
280 to 284 °C | CCCc1nc(N)nc(N)c1N1CCN(c2ccc(C(=O)N[C@@H](CCC(=O)O)C(=O)O)cc2)CC1
108 to 109 °C | OC(c1ccc(F)cc1)(c1ccc(F)cc1)C1CCN(CCCOc2ccc(-c3ccccc3)cc2)CC1
87 to 91 °C | COc1cccc(C2C(=O)NC(=O)C2c2cn3c4c(cccc24)CCC3)c1 (stereo not drawn)
199 to 200 °C | CC(C)C(=O)Nc1ccn2nc(-c3ccccc3)c(-c3ccc(=O)n(C(C)C)n3)c2c1
186 to 188 °C | NC(=O)CN1C(=O)CC2Cc3c(Cl)cccc3C21 (stereo not drawn)
61 to 63 °C | CCC(C1=C(C)C(=O)C(C)=C(C)C1=O)c1ccc(C(C)C)cc1 (stereo not drawn)
42 to 42.9 °C | CCCCCCCCCCc1ccc2cc(OS(=O)(=O)C(F)(F)F)c(SC)cc2c1
181 to 183 °C | NC(=NC(=O)Cn1c(Cl)ccc1Cl)NC(=O)Cc1ccccc1
133 to 137 °C | CC(O)c1ccc2c(c1)ncn2-c1cccc(-c2cccnc2O)c1 (stereo not drawn)
202 °C | COc1cc2c(cc1OC)CN(CCN(C)Cc1ccc(NC(=O)c3cccc4c(=O)c5cccc(OC)c5[nH]c34)cc1)CC2
301 to 302 °C | COc1ccc(-c2cnc(N3Cc4c([nH]c5ccccc5c4=O)C3C3Cc4ccccc4O3)nc2)cc1 (stereo not drawn)
104 to 108 °C | O=C(c1ccccc1)C(c1ccc(Cl)cc1Cl)C(F)n1cncn1 (stereo not drawn)
125 to 127 °C | CCCCOCCOc1ccc(-c2ccc(N3CCCC(C)C3)c(C=CC(=O)O)c2)cc1 (stereo not drawn)
175 °C | COc1ccc2c(O)n[nH]c2c1OC
213 to 215 °C | CCOc1nc2cccc(C(=O)O)c2n1Cc1ccc(-c2ccccc2C(=O)O)cc1
95 to 96 °C | N#CNc1ccccc1-c1ccc(F)cc1
147 to 149 °C | CCOC(=O)c1nc2ccc(N)cc2[nH]1
> 250 °C | CC(C)(C)NC(=O)Nc1nc2nc(N)ncc2cc1-c1ccccc1
203 to 204 °C | CCCCC[C@H]1CC[C@H](CCC2CCC(c3ccc(O)cc3)(c3ccc(O)cc3)CC2)CC1
96 to 97 °C | CCOC(=O)c1ccc(/C=C(\C)c2ccc3c(c2)CCC(C)(C)CS3)cc1

Compound | melting point
Cc1c2c(cn1C)N(C)C(=O)C(OC(=O)c1ccccc1)N=C2c1ccccc1Cl (stereo not drawn) | 228 to 229 °C
COC(=O)CN1C(=O)CN=C(c2ccccc2Cl)c2ccccc21 | 166 to 168 °C
CCC1N=C(c2ccccc2Cl)c2cc(CCC(=O)N3CCOCC3)sc2-n2c(C)nnc21 (stereo not drawn) | 145 to 147 °C
ON=CC12CCCN(CCC1)C2 | 115 to 117 °C
